Type in all cases: biochemical
For assay [1], the target named is T1, PI3Kδ (Homo sapiens, UniProt O00329).
T1 construct: purchased Millipore Ltd (Billerica, Mass.)
Put plainly: In vitro determination of the PI3K enzyme inhibitory activity in the cell free assay (ADP-Glo Kinase Assay), PI3Kδ. The following applies: ATP 80 μM, read-out: PI3K delta inhibition. The method, then:
(§1) In vitro Determination of the PI3K Enzyme Inhibitory Activity in the Cell Free Assay
(§2) Human recombinant proteins PI3Kα, PI3Kβ, PI3Kγ and PI3Kδ were purchased from Millipore Ltd (Billerica, Mass.). Compounds were dissolved at 0.5 mM in DMSO and were tested at different concentrations for their activity against PI3Ks using the ADP-Glo™ Kinase Assay (Promega, Madison Wis.) according to the manufacturer's instructions.
(§3) Briefly, the kinase reactions were performed in 384-well white plates (Greiner Bio-One GmbH, Frickenhausen). Each well was loaded with 0.1 μl of test compounds and 2.5 μl of 2× reaction buffer (40 mM Tris pH7.5, 0.5 mM EGTA, 0.5 mM Na3VO4, 5 mM β-glycerophosphate, 0.1 mg/ml BSA, 1 mM DTT), containing 50 μM PI and PS substrates (L-α-phosphatidylinositol sodium salt and L-α-phosphatidyl-L-serine, Sigma-Aldrich, St. Louis Mo.) and the PI3K recombinant proteins (PI3Kγ 0.25 ng/μl, PI3Kδ 1 ng/μl, PI3Kα 0.125 ng/μl, PI3Kβ 1 ng/μl).
(§4) The reactions were started by adding 2.5 μl of 2×ATP solution to each well (final concentrations: PI3Kγ ATP 30 μM; PI3Kδ ATP 80 μM; PI3KαATP 50 μM; PI3Kβ ATP 100 μM) and incubated for 60 min at room temperature. Subsequently, each kinase reaction was incubated for 40 min with 5 μl ADP-Glo™ Reagent, allowing depletion of unconsumed ATP. Then, the Kinase Detection Reagent (10 μl) was added in each well to convert ADP to ATP and to allow the newly synthesized ATP to be measured using a luciferase/luciferin reaction. Following 60 min incubation, the luminescence signal was measured using a Wallac EnVision® multilabel reader (PerkinElmer, Waltham Mass.).
(§5) Curve fitting and IC50 calculation were carried out using a four-parameter logistic model in XLfit (IDBS, Guilford, UK) for Microsoft Excel (Microsoft, Redmont, Wash.).
For orientation: In ADP-Glo the light output rises with the ADP produced.

Assay [2] has as its target T2, PI3Kα (Homo sapiens, UniProt P42336).
T2 construct: purchased Millipore Ltd (Billerica, Mass.)
Put plainly: In vitro determination of the PI3K enzyme inhibitory activity in the cell free assay (ADP-Glo Kinase Assay), PI3Kα. The following applies: ATP 50 μM, read-out: PI3K alpha inhibition. The method, then: as §1, §2, §3, §4, §5

Assay [3] concerns the target T3, PI3Kγ (Homo sapiens, UniProt P48736).
T3 construct: purchased Millipore Ltd (Billerica, Mass.)
Put plainly: In vitro determination of the PI3K enzyme inhibitory activity in the cell free assay (ADP-Glo Kinase Assay), PI3Kγ. The following applies: ATP 30 μM, read-out: PI3K gamma inhibition. The method, then: as §1, §2, §3, §4, §5

Assay [4] addresses T4, PI3Kβ (Homo sapiens, UniProt P42338).
T4 construct: purchased Millipore Ltd (Billerica, Mass.)
Put plainly: In vitro determination of the PI3K enzyme inhibitory activity in the cell free assay (ADP-Glo Kinase Assay), PI3Kβ. The following applies: ATP 100 μM, read-out: PI3K beta inhibition. The method, then: as §1, §2, §3, §4, §5

T2 sequence (P42336 whole entry): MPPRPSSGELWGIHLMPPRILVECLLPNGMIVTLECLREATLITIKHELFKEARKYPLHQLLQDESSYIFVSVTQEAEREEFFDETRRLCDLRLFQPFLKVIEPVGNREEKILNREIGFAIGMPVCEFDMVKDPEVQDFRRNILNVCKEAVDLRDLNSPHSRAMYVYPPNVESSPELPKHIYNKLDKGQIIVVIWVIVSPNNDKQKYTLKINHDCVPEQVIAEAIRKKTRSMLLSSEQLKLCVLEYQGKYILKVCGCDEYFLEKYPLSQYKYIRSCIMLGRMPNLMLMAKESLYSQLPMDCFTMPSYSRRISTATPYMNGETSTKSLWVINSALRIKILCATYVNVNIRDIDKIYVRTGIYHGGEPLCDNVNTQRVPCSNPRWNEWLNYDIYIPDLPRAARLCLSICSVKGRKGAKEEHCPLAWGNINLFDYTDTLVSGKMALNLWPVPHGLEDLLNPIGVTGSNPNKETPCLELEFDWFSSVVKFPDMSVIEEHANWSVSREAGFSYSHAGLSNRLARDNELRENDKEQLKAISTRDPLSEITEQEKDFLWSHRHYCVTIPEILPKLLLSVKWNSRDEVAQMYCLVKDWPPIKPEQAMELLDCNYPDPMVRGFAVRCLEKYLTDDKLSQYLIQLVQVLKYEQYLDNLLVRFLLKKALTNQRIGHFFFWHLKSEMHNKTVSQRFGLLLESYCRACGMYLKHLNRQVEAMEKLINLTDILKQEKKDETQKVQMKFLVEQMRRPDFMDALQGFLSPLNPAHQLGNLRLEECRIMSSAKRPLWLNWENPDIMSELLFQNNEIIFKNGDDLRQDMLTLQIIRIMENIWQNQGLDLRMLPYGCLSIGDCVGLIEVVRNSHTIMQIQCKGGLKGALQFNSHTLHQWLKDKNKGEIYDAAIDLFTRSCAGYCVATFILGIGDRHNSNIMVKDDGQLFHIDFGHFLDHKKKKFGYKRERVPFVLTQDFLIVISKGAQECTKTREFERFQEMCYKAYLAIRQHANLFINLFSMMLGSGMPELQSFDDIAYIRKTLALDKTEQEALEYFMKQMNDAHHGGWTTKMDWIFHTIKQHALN
T2 sequence (P27986 whole entry partner): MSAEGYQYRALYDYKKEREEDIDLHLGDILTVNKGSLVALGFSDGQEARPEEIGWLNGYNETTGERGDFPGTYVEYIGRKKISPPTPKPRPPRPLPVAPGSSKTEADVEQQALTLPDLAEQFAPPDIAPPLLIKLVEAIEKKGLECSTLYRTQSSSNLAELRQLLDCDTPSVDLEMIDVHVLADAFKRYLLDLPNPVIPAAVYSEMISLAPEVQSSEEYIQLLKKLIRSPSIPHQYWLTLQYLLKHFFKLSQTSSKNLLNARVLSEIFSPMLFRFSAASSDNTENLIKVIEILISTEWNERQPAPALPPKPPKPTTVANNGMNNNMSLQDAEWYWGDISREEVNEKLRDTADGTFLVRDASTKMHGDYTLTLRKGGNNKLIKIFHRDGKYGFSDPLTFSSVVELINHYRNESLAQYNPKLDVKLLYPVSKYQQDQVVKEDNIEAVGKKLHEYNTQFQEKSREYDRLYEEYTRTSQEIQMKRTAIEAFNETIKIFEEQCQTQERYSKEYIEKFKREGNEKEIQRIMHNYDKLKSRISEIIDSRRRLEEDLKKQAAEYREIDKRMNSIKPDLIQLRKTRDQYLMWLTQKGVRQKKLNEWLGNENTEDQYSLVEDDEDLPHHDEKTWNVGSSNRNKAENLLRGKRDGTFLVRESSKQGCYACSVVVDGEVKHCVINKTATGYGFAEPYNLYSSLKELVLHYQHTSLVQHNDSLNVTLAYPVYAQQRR
T3 sequence (P48736 whole entry): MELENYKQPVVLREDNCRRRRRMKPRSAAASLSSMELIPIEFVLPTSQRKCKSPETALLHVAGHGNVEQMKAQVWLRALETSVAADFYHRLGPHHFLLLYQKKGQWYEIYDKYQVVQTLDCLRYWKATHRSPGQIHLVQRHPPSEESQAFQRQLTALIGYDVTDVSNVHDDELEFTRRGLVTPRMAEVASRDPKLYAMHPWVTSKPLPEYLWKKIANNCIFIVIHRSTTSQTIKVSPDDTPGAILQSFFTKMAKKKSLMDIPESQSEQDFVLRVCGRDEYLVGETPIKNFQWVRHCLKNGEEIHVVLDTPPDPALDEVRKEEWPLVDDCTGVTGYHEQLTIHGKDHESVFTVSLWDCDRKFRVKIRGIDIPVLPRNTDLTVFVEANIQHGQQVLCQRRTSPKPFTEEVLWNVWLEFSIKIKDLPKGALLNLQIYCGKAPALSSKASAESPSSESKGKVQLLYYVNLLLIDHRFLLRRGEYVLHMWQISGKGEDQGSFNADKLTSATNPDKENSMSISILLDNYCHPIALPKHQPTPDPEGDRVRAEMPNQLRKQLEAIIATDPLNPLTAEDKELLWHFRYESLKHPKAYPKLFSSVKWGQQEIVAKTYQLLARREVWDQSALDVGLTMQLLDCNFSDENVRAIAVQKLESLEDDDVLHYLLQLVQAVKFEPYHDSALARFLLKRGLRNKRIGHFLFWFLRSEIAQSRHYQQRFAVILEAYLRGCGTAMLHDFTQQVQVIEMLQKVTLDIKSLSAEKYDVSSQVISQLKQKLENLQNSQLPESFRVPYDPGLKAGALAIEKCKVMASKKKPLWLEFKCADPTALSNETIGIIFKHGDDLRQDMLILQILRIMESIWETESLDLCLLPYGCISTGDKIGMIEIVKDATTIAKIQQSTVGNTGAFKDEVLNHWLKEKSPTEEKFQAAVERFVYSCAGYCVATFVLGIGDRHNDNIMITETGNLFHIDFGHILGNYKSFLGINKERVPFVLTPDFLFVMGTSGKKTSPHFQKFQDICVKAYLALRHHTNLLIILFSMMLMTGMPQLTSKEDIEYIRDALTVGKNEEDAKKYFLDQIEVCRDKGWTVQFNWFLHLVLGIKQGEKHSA
T4 sequence (P42338 whole entry): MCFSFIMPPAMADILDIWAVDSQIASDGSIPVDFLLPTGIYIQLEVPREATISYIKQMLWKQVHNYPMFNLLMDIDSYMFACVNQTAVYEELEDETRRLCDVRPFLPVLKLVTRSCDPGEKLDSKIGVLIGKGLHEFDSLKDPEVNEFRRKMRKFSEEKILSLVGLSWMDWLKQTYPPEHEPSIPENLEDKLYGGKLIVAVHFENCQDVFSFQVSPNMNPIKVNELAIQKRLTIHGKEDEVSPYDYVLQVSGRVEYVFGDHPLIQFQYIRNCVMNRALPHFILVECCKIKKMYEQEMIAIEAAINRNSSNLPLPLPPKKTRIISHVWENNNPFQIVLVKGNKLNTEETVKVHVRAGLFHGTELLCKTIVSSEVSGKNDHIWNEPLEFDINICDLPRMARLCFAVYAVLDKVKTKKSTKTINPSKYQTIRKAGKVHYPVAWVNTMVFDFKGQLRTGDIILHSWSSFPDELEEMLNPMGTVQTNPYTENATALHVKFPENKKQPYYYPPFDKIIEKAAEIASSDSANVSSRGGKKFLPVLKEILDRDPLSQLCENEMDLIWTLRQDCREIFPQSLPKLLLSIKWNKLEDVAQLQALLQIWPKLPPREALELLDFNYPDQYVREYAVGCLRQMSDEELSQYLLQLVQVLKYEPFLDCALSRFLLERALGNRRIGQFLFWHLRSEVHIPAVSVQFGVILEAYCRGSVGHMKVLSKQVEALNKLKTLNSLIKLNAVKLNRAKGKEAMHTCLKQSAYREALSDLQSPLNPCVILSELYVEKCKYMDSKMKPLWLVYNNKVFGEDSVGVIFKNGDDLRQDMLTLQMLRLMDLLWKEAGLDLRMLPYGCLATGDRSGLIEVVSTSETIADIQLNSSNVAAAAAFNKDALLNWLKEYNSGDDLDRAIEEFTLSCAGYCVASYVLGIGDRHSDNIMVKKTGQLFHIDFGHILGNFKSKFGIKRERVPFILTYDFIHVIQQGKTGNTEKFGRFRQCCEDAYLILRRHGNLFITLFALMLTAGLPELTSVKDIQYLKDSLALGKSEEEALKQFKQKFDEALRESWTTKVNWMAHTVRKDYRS
T4 sequence (P27986 whole entry partner): as the sequence (P27986 whole entry partner) above
T1 sequence (O00329 whole entry): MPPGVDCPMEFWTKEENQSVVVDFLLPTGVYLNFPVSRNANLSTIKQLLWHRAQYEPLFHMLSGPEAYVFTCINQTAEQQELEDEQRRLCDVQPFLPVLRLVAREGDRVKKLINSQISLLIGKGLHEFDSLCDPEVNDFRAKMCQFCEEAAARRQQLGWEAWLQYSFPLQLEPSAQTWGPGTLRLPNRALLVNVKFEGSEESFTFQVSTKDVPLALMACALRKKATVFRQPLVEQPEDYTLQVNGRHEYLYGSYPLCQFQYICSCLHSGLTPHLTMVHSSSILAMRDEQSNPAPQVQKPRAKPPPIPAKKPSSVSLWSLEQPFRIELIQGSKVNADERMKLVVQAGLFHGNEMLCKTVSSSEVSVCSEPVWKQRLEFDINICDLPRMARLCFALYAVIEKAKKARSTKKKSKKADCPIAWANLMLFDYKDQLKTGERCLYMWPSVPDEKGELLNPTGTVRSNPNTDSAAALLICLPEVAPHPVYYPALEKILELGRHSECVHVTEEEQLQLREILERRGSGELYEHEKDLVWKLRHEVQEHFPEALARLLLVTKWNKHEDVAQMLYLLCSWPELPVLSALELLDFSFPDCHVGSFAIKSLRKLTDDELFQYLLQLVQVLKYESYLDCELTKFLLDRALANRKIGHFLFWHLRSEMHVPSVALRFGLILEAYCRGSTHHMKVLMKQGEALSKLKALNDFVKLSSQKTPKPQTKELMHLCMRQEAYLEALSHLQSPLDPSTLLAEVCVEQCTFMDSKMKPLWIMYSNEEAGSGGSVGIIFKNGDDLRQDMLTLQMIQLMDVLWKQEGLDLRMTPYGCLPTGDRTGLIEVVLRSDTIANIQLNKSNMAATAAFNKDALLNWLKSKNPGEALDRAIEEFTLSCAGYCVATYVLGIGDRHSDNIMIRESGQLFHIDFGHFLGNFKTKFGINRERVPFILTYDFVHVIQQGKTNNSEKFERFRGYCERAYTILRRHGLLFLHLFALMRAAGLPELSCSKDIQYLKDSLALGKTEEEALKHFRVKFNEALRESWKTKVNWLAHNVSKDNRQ
T1 sequence (P27986 whole entry partner): as the sequence (P27986 whole entry partner) above

On to `CC(c1cc2cccnn2c1-c1cccc(CN(C)C)c1)n1nc(-c2cc(O)cc(F)c2)c2c(N)ncnc21` (stereo not drawn) [Example 128, 3-{4-amino-1-[1-(7-{3-[(dimethylamino)-methyl]phenyl}pyrrolo[1,2-b]pyridazin-6-yl)-ethyl]-1H-pyrazolo[3,4-d]pyrimidin-3-yl}-5-fluorophenol], for which the IC50 is 10 to 1000 nM in assay [1], over 1000 nM in assay [2], over 1000 nM in assay [3] and 10 to 1000 nM in assay [4].
`Cc1c(C(C)n2nc(-c3cc(O)cc(F)c3)c3c(N)ncnc32)c(-c2ccccn2)n2ccccc12` (stereo not drawn) [Example 89, 3-(4-amino-1-{1-[1-methyl-3-(pyridin-2-yl)indolizin-2-yl]ethyl}-1H-pyrazolo[3,4-d]pyrimidin-3-yl)-5-fluorophenol]: the IC50 in assay [1], in assay [2], in assay [3] and in assay [4] was 10 to 1000 nM in each case.
In the case of `CC(c1cc2ccccn2c1-c1ccccn1)n1nc(-c2cncc(O)c2)c2c(N)ncnc21` (stereo not drawn) [Example 69, 5-(4-amino-1-{1-[3-(pyridin-2-yl)indolizin-2-yl]ethyl}-1H-pyrazolo[3,4-d]pyrimidin-3-yl)pyridin-3-ol], the IC50 is under 10 nM in assay [1], over 1000 nM in assay [2], 10 to 1000 nM in assay [3] and 10 to 1000 nM in assay [4].
Regarding `COc1cc(F)cc(-c2nn(C(C)c3cc4ccccn4c3-c3ccccn3)c3ncnc(N)c23)c1` (stereo not drawn) [Example 62, 3-(3-fluoro-5-methoxyphenyl)-1-{1-[3-(pyridin-2-yl)indolizin-2-yl]ethyl}-1H-pyrazolo[3,4-d]pyrimidin-4-amine], the IC50 in assay [1] is 10 to 1000 nM; in assay [2], over 1000 nM; in assay [3], over 1000 nM; in assay [4], over 1000 nM.
For `C[C@H](c1cc2ccccn2c1-c1ccc(CN2CCOCC2)cn1)n1nc(-c2cc(O)cc(F)c2)c2c(N)ncnc21` (single isomer, unassigned) [Example 108b, 3-[4-amino-1-(1-{3-[5-(morpholin-4-ylmethyl)pyridin-2-yl]indolizin-2-yl}ethyl)-1H-pyrazolo[3,4-d]pyrimidin-3-yl]-5-fluorophenol], the IC50 in assay [1] is under 10 nM; in assay [2], over 1000 nM; in assay [3] it was over 1000 nM; in assay [4] it was 10 to 1000 nM.
As for `CC(c1cc2ccccn2c1-c1cscn1)n1nc(-c2cc(O)cc(F)c2)c2c(N)ncnc21` (stereo not drawn) [Example 129, 3-(4-amino-1-{1-[3-(1,3-thiazol-4-yl)indolizin-2-yl]-ethyl}-1H-pyrazolo[3,4-d]pyrimidin-3-yl)-5-fluorophenol], the IC50 in assay [1], in assay [2], in assay [3] and in assay [4] was 10 to 1000 nM each time.
Take `CC(Nc1ncnc(N)c1C#N)c1cc2ccccn2c1-c1ccccn1` (stereo not drawn) [Example 33, 4-amino-6-({1-[3-(pyridin-2-yl)indolizin-2-yl]ethyl}amino)pyrimidine-5-carbonitrile]: the IC50 is 10 to 1000 nM in assay [1], over 1000 nM in assay [2], over 1000 nM in assay [3] and 10 to 1000 nM in assay [4].
With `CC(c1cc2ccccn2c1CN1CCC2(CCN(C)CC2)CC1)n1nc(-c2cc(O)cc(F)c2)c2c(N)ncnc21` (stereo not drawn) [Example 143, 3-(4-amino-1-{1-[3-({9-methyl-3,9-diazaspiro[5.5]undecan-3-yl}methyl)indolizin-2-yl]ethyl}-1H-pyrazolo[3,4-d]pyrimidin-3-yl)-5-fluorophenol], the IC50 in assay [1] is under 10 nM; in assay [2], 10 to 1000 nM; in assay [3], 10 to 1000 nM; in assay [4], 10 to 1000 nM.
For the molecule `c1ccc(-c2c(CNc3ncnc4[nH]cnc34)cn3ccccc23)nc1` [Example 20, N-{[1-(pyridin-2-yl)indolizin-2-yl]methyl}-9H-purin-6-amine], the IC50 in assay [1] is 10 to 1000 nM; in assay [2], over 1000 nM; in assay [3], over 1000 nM; in assay [4] it was over 1000 nM.

Values taken from US9527869B2, “Indolizine derivatives as phoshoinositide 3-kinases inhibitors” (CHIESI FARMACEUTICI S.P.A., priority 2014, dated 2016).
